In patent US10639382B2, “Method for treating leukemia” (National Guard Health Affairs, priority 2017, dated 2020):
Structures can show the parent of a compound that is named as a salt.

Tests used:
[1] = tested on: PBMCs from CML patients; assay: Primary screening of FDA approved drug library, TitreGlo/CellTiter-Glo cell viability, PBMCs from CML patients; assay type: cell-based, human; conditions: compound 10 uM, PBMCs from CML patients, average over patients, relative to high control (0%) and no-cell low control (100%); for inhibition at 10 µM: Homo sapiens, PBMC, read-out: % Inhibition, CML Average
Method: (§1) Whole blood was taken from experimental group patients and control group patients. The collected blood was transferred to EDTA tubes with a 5 mL pipette and a pipette aid and then to each EDTA tubes corresponding 50 ml centrifuge tubes. All the blood from one patient was placed into 1 tube (50 mL) and an equal volume of PBS was added to the 50 mL centrifuge tube. The sample was then mixed by either inverting the tube or pipetting up & down. The blood was transferred into tow 50 mL leucosep tube and centrifuged at room temperature (18-20° C.) for 15 minutes at 800×g with the brake turned off and acceleration at 2/deceleration at zero. After centrifugation, the white cell interface (buffy coat) was removed by pasture pipette and transferred to the new appropriately labelled 50 ml centrifuge tube. 25 mL PBS was added to the white cell interface (buffy coat) and the mix was centrifuged for 10 minutes at room temperature at 400×g with the brake off and acceleration at 4 & deceleration at 2. The supernatant was discarded from the pellet carefully in an appropriate manner. The pellet was washed another time with 20 mL by centrifugation for 5 minutes as above. The pellet was re-suspended in 5 mL and cells were counted using V-Cell. The cells were then either used directly as fresh for screening or frozen in liquid nitrogen in 10% DMSO/RPMPI media until use.
(§2) The assay used for TitreGlo (Promega) to measure cell viability based on the ATP production. […] The assay was developed in a 384-well plate with 2500 cell/well in 50 uL total volume. Alternatively, the assay could be developed in a 96-well plate with 10,000 cells/well. […] Z′ as a statistics factor was calculated as follows:
(§3) Each compound from the ENZO FDA SCREEN-WELL® FDA approved drug library V2 (0.10 μl in 100% DMSO) was transferred to white, 384-well, PS, Cellstar plates (Greiner Bio-One) using the Echo® Liquid Handler (Labcyte Inc.). Each plate contained one column for the High/Low Controls. The Low Control (1% DMSO v/v in column 23, no cells) and the High Control (final 1% DMSO v/v in column 24, with cells) were employed to calculate the Z′ for each assay plate. […] At 24 h post seeding, baseline growth was assessed using a control plate and CellTiter-Glo (CTG) reagent (Promega Corporation). Briefly, 20 μL/well of CTG detection mix was added and plates were read using an EnVision Multimode plate reader (PerkinElmer) after 10 min incubation in the dark. The raw luminescence signal was normalized in ActivityBase XE with outliers in control wells eliminated according to the 3-sigma method to yield percentage of cell viability by using the High Control (HC) containing cells in 1% DMSO v/v (Carl Roth) and the Low Control containing 1% DMSO v/v (Carl Roth). All Medium-Throughput Screening experiments were performed in duplicate for each patient. […] The raw luminescence signal was processed using Graph Pad Prism (Graph Pad Software Inc.) with outliers in control wells eliminated according to the 3-sigma method. The dose-response curves were analyzed using a 4 parameter sigmoidal fit to obtain plausible results in the case non-sigmoidal dose-response curves.
(§4) Each average patient samples were plotted against average of the control samples to identify the positive hits.
Samples from 4 patients were screened against the FDA approved drug library where the Negative Control (High control) contained cells treated with DMSO and the Positive Control (Low control) were based using no cells. The screening was carried out in 96 well plates. The raw luminescence counts were normalized and the % Inhibition was calculated relative to the high control (0% Inhibition) and the low control (100% Inhibition).

[2] = tested on: PBMCs from CLL patients; assay: Primary screening of FDA approved drug library, TitreGlo/CellTiter-Glo cell viability, PBMCs from CLL patients; assay type: cell-based, human; conditions: compound 10 uM, PBMCs from CLL patients, average over patients, relative to high control (0%) and no-cell low control (100%); for inhibition at 10 µM: Homo sapiens, PBMC, read-out: % Inhibition, CLL Average
Method: as §1, §2, §3
(§5) The Screen-Well FDA approved drug library was screened, which contains 780 approved drugs. […] The final DMSO concentration in the assay plate was 0.1% of total volume. […] The average of all four control samples was then calculated and used to determine the positive “hits” in patients' samples.
as §4

[3] = tested on: PBMCs from ALL patients; assay: Primary screening of FDA approved drug library, TitreGlo/CellTiter-Glo cell viability, PBMCs from ALL patients; assay type: cell-based, human; conditions: compound 10 uM, PBMCs from ALL patients, average over patients, relative to high control (0%) and no-cell low control (100%); for inhibition at 10 µM: Homo sapiens, PBMC, read-out: % Inhibition, ALL Average
Method: as §1, §2, §3, §5, §4

[4] = tested on: PBMC from CML patients; assay: Confirmation of positive hits, dose-response TiterGlo growth inhibition, PBMC from CML patients versus healthy controls; assay type: cell-based, human; conditions: freshly prepared stock from solid, 24 hr incubation
Method: FIG. 2A depicts data of isoproterenol inducing cell death preferentially in chronic myelogenous leukemia (CML) patients' primary PBMC as compared to PBMC from healthy individuals (Control, CTL) when incubated with different concentrations of isoproterenol prepared from liquid stock. FIG. 2B depicts data of isoproterenol inducing cell death preferentially in chronic myelogenous leukemia (CML) patients' primary PBMC as compared to PBMC from healthy individuals (Control, CTL) when incubated with different concentrations of isoproterenol prepared from a solid.

[5] = tested on: PBMC from CLL patients; assay: Confirmation of positive hits, dose-response TiterGlo growth inhibition, PBMC from CLL patients versus healthy controls
Method: as §3
Compound plates were prepared from the same stock used in the original screening and each compound was tested at 16 concentration point with 100 uM being the highest concentration and the dilution factor was ⅓ between two points.
The TitreGlo was performed as described and the curve for growth inhibition was plotted using activity base to calculate the EC50.

[6] = tested on: PBMCs from AML patients; assay: Primary screening of FDA approved drug library, TitreGlo/CellTiter-Glo cell viability, PBMCs from AML patients; assay type: cell-based, human; conditions: compound 10 uM, PBMCs from AML patients, average over patients, relative to high control (0%) and no-cell low control (100%); for inhibition at 10 µM: Homo sapiens, PBMC, read-out: % Inhibition, AML Average
Method: as §1, §2, §3, §5, §4

CC(C)NCC(O)c1ccc(O)c(O)c1 (racemic) [(±) Isoproterenol HCl]
inhibition at 10 µM [1]: 65.3%
inhibition at 10 µM [2]: 39.9%
inhibition at 10 µM [3]: 61.7%
EC50 of growth inhibition, times higher in control PBMC compared to PBMC from CML patients [4]: 4.4 times
EC50 of growth inhibition, times higher in control PBMC compared to PBMC from CLL patients ([5]; freshly prepared stock from solid, 24 hr incubation, TiterGlo): 4.8 times

C[C@](N)(Cc1ccc(O)c(O)c1)C(=O)O [Methyldopa]
Effect on CLL PBMC compared to control cells ([5]; dose-response, FIG. 3): show an effect on CLL PBMC better than control cell

Cc1cc2c(s1)Nc1ccccc1N=C2N1CCN(C)CC1 [Olanzapine]
inhibition at 10 µM [1]: 79.5%
inhibition at 10 µM [2]: -26.5%
inhibition at 10 µM [6]: 1.8%
inhibition at 10 µM [3]: 71.8%
Induction of cell death in PBMC from CLL patients compared to control cells ([5]; fresh primary cells, FIG. 4A-4D): shown to induce cell death in PBMC from CLL patients compared to control cells
Effect on PBMC when primary cells are tested after freezing ([5]; primary cells tested after freezing): the effect is not observed

C[C@H]1O[C@@H](O[C@H]2[C@@H](O)C[C@H](O[C@H]3[C@@H](O)C[C@H](O[C@H]4CC[C@@]5(C)[C@H](CC[C@@H]6[C@@H]5C[C@@H](O)[C@]5(C)[C@@H](C7=CC(=O)OC7)CC[C@]65O)C4)O[C@@H]3C)O[C@@H]2C)C[C@H](O)[C@@H]1O [Digoxin]
inhibition at 10 µM [1]: 76.8%
inhibition at 10 µM [2]: 30.1%
inhibition at 10 µM [6]: -33.2%
inhibition at 10 µM [3]: 32%

CC(C)(C)C(=O)OCOP(=O)(COCCn1cnc2c(N)ncnc21)OCOC(=O)C(C)(C)C [Adcfovir Dipivoxil]
inhibition at 10 µM [1]: 63.7%
inhibition at 10 µM [2]: 43.9%
inhibition at 10 µM [6]: 72.8%
inhibition at 10 µM [3]: 96%

CN(C)C(=O)C(CCN1CCC(O)(c2ccc(Cl)cc2)CC1)(c1ccccc1)c1ccccc1 [Loperamide HCl]
inhibition at 10 µM [1]: 69.3%
inhibition at 10 µM [2]: 16.3%
inhibition at 10 µM [6]: 18.5%
inhibition at 10 µM [3]: 54.9%

CNC[C@H](O)c1ccc(O)c(O)c1.O=C(O)C(O)C(O)C(=O)O [L-(−)-Epinephrine-(+)-Bitartrate]
% Inhibition, CML Average [1]: 68.4%
% Inhibition, CLL Average [2]: 45.4%
% Inhibition, AML Average [6]: −2.8%
% Inhibition, ALL Average [3]: 80.5%

Nc1nc(Cl)nc2c1ncn2[C@@H]1O[C@H](CO)[C@@H](O)[C@@H]1F [Clofarabine]
inhibition at 10 µM [1]: 21.9%
inhibition at 10 µM [2]: 41.3%
inhibition at 10 µM [6]: -20.6%
inhibition at 10 µM [3]: 68.1%

COC(=O)C1=C(C)NC(C)=C(C(=O)OC)C1c1ccccc1[N+](=O)[O-] [Nifedipine]
inhibition at 10 µM [1]: 4.2%
inhibition at 10 µM [2]: -10.8%
inhibition at 10 µM [6]: 7.9%
inhibition at 10 µM [3]: 74.3%
